Among the data in patent US20240116912A1, “COMPOUNDS AND METHODS FOR MODULATING FXR” (Terns Pharmaceuticals, Inc., priority 2020, published 2024) are EC50 values, retold here.

Assay [1] addresses full length human FXR protein (Homo sapiens (Human), UniProt Q96RI1). As to the kind of experiment: FXR cellular assay (FXR-SRCP β-gal enzyme fragment complementation in CHO-K1 cells, chemiluminescence). As to conditions: CHO-K1 cells with SRCP-EA and ProLink-labeled FXR, 0-10 micromolar compound, 37° C. for 6h, read-out: EC50 FXR-cell Luminescence/. It counts as cell-based. The source says: A cell based FXR assay was used to detect protein-protein interactions between an activated (ligand-bound), full length human FXR protein and a nuclear fusion protein containing a Steroid Receptor Coactivator Peptide (SCRP) domain. In this approach, two weakly complementing fragments of the 3-gal enzyme were expressed within stably transfected Chinese Hamster Ovary (CHO-K1) cells. The complementing fragments of the 3-gal enzyme (ProLink, PK; and Enzyme Acceptor, EA) were translationally fused to the C-terminus of a full-length FXR and to the SRCP, respectively. Complementation was driven by the protein-protein interaction between SRCP-EA and a ProLink-labeled FXR. Upon FXR-SRCP binding, the two fragments of 3-gal complement, forming a functional enzyme capable of hydrolyzing a substrate molecule and generating a chemiluminescent signal.
CHO-K1 cells containing SRCP-EA and ProLink-labeled FXR were plated in 384-well microplates and incubated at 37° C. overnight. A positive control FXR agonist, GW4064 (0-10 micromolar), or test compounds (0-10 micromolar) were added to plated cells and incubated at 37° C. for 6h (final DMSO vehicle concentration was 1%). The assay signal was generated by addition of 50% (v/v) detection reagent (19:5:1, cell assay buffer: substrate reagent 1: substrate reagent 2, DiscoverX) followed by incubation for 1h at ambient room temperature. Microplates were analyzed using an Envision reader (PerkinElmer Life and Analytical Sciences, Signal=chemiluminescence).

Assay [2] addresses ligand binding domain (LBD) of recombinant human FXR (Homo sapiens (Human), UniProt Q96RI1). In words: FXR cell free coactivator (SRC-1) recruitment assay, TR-FRET. As to conditions: FXR LBD (amino acids 244-476) with labeled SRC-1 domain, 25° C. for 60 minutes, activity relative to CDCA maximum; read-out: EC50 FXR- Biochemical TR-FRET/μM. The protocol:
A cell free coactivator recruitment assay was developed for FXR, to measure the functional potency of novel FXR compounds. In this assay, novel FXR compounds were bound to the ligand binding domain (LBD) of recombinant human FXR. The ability of this liganded homodimeric complex to recruit the co-activator protein steroid receptor coactivator 1 (SRC-1) was measured using Time-Resolved Fluorescence Resonance Energy Transfer (TR-FRET).
The LBD of human FXR (amino acids 244-476) was cloned into an expression vector for protein expression in SF9 insect cells. Purified FXR LBD was incubated in TR-FRET coregulator buffer G (Eurofins) with test compounds (0-10 micromolar) and a labeled nuclear receptor interaction domain of SRC-1 at 25° C. for 60 minutes (final DMSO vehicle concentration was 1.2%). Assays were analyzed using an Envision TR-FRET reader (PerkinElmer Life and Analytical Sciences). Compound activity at each concentration was defined as a percentage of the maximal activity of the natural FXR ligand agonist chenodeoxycholic acid (CDCA) generating a dose response curve.

Where “and” joins values, the source holds several entries; their conditions need not be identical. Identical values can stand only once.

full length human FXR protein, sequence (Q96RI1 whole entry, the tested form may be a part): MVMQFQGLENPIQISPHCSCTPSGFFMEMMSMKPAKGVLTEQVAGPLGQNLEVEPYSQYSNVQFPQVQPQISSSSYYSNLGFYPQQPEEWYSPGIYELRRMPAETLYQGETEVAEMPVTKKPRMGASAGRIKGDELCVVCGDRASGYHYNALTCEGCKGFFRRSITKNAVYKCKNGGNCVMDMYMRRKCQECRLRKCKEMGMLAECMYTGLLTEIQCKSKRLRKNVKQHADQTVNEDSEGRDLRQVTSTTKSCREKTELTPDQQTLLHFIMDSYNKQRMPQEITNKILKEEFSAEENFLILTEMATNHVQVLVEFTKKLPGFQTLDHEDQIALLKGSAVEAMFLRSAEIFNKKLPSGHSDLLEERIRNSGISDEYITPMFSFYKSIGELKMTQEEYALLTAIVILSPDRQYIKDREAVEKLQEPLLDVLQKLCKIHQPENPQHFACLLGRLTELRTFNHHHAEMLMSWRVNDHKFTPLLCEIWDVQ
ligand binding domain (LBD) of recombinant human FXR, sequence (Q96RI1 254-486): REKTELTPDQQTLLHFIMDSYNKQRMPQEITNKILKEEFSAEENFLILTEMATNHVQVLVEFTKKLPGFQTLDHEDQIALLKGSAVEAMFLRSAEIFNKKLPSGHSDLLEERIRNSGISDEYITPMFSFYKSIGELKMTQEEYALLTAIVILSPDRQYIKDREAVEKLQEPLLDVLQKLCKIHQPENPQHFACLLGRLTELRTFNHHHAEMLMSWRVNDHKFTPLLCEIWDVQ
ligand binding domain (LBD) of recombinant human FXR, sequence (Q15788 whole entry partner, the tested form may be a part): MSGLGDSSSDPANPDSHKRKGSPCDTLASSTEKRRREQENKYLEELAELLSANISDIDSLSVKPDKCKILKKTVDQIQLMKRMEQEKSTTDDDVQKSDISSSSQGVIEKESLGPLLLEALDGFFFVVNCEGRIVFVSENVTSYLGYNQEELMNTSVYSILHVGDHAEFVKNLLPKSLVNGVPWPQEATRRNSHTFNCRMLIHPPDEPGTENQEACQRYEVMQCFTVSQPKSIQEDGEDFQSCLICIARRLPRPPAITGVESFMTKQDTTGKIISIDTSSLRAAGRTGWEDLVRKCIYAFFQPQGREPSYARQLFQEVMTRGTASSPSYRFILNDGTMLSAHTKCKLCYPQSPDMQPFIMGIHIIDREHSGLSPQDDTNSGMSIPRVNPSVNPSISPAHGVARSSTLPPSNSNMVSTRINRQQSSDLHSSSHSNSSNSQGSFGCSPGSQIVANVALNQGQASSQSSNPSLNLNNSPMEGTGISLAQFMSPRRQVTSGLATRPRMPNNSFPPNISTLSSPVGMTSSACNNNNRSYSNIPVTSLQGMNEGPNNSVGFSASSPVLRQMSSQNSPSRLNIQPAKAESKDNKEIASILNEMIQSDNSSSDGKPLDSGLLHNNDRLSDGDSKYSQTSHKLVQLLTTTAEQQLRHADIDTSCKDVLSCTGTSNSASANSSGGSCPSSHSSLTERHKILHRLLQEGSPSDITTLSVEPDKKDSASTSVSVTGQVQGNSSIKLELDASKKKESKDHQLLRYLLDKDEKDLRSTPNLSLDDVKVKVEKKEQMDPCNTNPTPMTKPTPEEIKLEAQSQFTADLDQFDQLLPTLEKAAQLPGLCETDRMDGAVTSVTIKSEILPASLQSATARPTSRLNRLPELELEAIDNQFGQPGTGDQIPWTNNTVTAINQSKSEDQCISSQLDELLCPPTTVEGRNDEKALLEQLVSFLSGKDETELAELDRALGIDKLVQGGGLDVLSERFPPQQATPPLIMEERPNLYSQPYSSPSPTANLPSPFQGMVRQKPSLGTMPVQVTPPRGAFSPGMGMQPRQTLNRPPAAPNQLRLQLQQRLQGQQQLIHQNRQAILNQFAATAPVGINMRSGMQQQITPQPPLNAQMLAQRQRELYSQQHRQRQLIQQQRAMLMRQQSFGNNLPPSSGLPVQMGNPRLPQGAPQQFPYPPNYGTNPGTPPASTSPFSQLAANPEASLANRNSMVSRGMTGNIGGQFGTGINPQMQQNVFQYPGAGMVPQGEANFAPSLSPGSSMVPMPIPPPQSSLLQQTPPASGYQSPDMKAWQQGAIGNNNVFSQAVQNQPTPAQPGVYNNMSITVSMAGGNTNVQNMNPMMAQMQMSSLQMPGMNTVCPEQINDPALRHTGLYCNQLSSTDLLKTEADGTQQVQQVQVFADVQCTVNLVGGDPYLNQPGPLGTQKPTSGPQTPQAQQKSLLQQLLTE

Turning to `O=C(c1noc(=O)[nH]1)N1CCC(OCc2c(-c3c(Cl)cccc3Cl)noc2C2CC2)CC1` [Example 1, 3-(4-((5-cyclopropyl-3-(2,6-dichlorophenyl)isoxazol-4-yl)methoxy)piperidine-1-carbonyl)-1,2,4-oxadiazol-5(4H)-one], the values for the EC50 in assay [1] and in assay [2] were 1130 nM and 3.18 µM, respectively.

Take `Clc1cccc(Cl)c1-c1noc(C2CC2)c1COC1CCN(c2ccc(C3=NN3)cc2)CC1` [Example 2, 4-(((1-(4-(1H-diazirin-3-yl)phenyl)piperidin-4-yl)oxy)methyl)-5-cyclopropyl-3-(2,6-dichlorophenyl)isoxazole]: the EC50 came out at 691 nM in assay [1] and 2.89 µM in assay [2].

`O=c1[nH]c(-c2ccc(N3CCC(OCc4c(-c5c(Cl)cccc5Cl)noc4C4CC4)CC3)cc2)no1` [Example 3, 3-(4-(4-((5-cyclopropyl-3-(2,6-dichlorophenyl)isoxazol-4-yl)methoxy)piperidin-1-yl)phenyl)-1,2,4-oxadiazol-5(4H)-one]: the EC50 in assay [1] is 97 nM and 49.8 nM; in assay [2], 0.0036 µM and 0.0029 µM.

For the molecule `O=c1cn[nH]c(=O)n1-c1ccc(N2CCC(OCc3c(-c4c(Cl)cccc4Cl)noc3C3CC3)CC2)nc1` [Example 4, 4-(6-(4-((5-cyclopropyl-3-(2,6-dichlorophenyl)isoxazol-4-yl)methoxy)piperidin-1-yl)pyridin-3-yl)-1,2,4-triazine-3,5(2H,4H)-dione], the values for the EC50 in assay [1] and in assay [2] were 1470 nM and 0.22 µM, respectively.

On to `O=c1[nH]c(-c2cnc(N3CCC(OCc4c(-c5c(Cl)cccc5Cl)noc4C4CC4)CC3)nc2)no1` [Example 5, 3-(2-(4-((5-cyclopropyl-3-(2,6-dichlorophenyl)isoxazol-4-yl)methoxy)piperidin-1-yl)pyrimidin-5-yl)-1,2,4-oxadiazol-5(4H)-one], for which the EC50 is 2530 nM in assay [1] and 0.031 µM in assay [2].

Consider `O=c1[nH]c(-c2ccc(N3CCC(OCc4c(-c5c(Cl)cccc5Cl)noc4C4CC4)CC3)nc2)no1` [Example 6, 3-(6-(4-((5-cyclopropyl-3-(2,6-dichlorophenyl)isoxazol-4-yl)methoxy)piperidin-1-yl)pyridin-3-yl)-1,2,4-oxadiazol-5(4H)-one], for which the EC50 in assay [1] was 372 nM; in assay [2] it was 0.0044 µM.

Regarding `O=c1[nH]c(-c2ccc(N3CCC(OCc4c(-c5ccccc5OC(F)(F)F)noc4C4CC4)CC3)nc2)no1` [Example 75, 3-(6-(4-((5-cyclopropyl-3-(2-(trifluoromethoxy)phenyl)isoxazol-4-yl)methoxy)piperidin-1-yl)pyridin-3-yl)-1,2,4-oxadiazol-5(4H)-one], the EC50 in assay [1] was found to be 382 nM.

Regarding `C[C@@H]1C[C@H](OCc2c(-c3ccccc3OC(F)(F)F)noc2C2CC2)CCN1c1ccc(-c2noc(=O)[nH]2)cn1` [Example 76, 3-(6-((2R,4R)-4-((5-cyclopropyl-3-(2-(trifluoromethoxy)phenyl)isoxazol-4-yl)methoxy)-2-methylpiperidin-1-yl)pyridin-3-yl)-1,2,4-oxadiazol-5(4H)-one], in assay [1], the EC50 amounted to 196 nM.

As to `O=c1[nH]c(-c2ccc(N3[C@@H]4CC[C@H]3C[C@@H](OCc3c(-c5ccccc5Cl)noc3C3CC3)C4)nc2)no1` [Example 77, 3-(6-((1R,3r,5S)-3-((3-(2-chlorophenyl)-5-cyclopropylisoxazol-4-yl)methoxy)-8-azabicyclo[3.2.1]octan-8-yl)pyridin-3-yl)-1,2,4-oxadiazol-5(4H)-one], the EC50 in assay [1] worked out at 69.5 nM.

On to `O=c1[nH]c(-c2ccc(N3[C@@H]4CC[C@H]3C[C@@H](OCc3c(-c5c(F)cccc5F)noc3C3CC3)C4)nc2)no1` [Example 78, 3-(6-((1R,3r,5S)-3-((5-cyclopropyl-3-(2,6-difluorophenyl)isoxazol-4-yl)methoxy)-8-azabicyclo[3.2.1]octan-8-yl)pyridin-3-yl)-1,2,4-oxadiazol-5(4H)-one], for which the EC50 in assay [1] came to 154 nM.

Regarding `O=c1[nH]c(-c2ccc(N3CC[C@@H](OCc4c(-c5ccccc5OC(F)(F)F)noc4C4CC4)[C@H](F)C3)cc2)no1` [Example 79, 3-(4-((3R,4R)-4-((5-cyclopropyl-3-(2-(trifluoromethoxy)phenyl)isoxazol-4-yl)methoxy)-3-fluoropiperidin-1-yl)phenyl)-1,2,4-oxadiazol-5(4H)-one], in assay [1], the EC50 worked out at 312 nM.

Consider `O=c1[nH]c(-c2ccc(N3CC[C@H](OCc4c(-c5ccccc5OC(F)(F)F)noc4C4CC4)[C@@H](F)C3)cc2)no1` [Example 80, 3-(4-((3S,4S)-4-((5-cyclopropyl-3-(2-(trifluoromethoxy)phenyl)isoxazol-4-yl)methoxy)-3-fluoropiperidin-1-yl)phenyl)-1,2,4-oxadiazol-5(4H)-one], for which, in assay [1], the EC50 was found to be 641 nM.

Turning to `O=c1cc(-c2ccc(N3[C@@H]4CC[C@H]3C[C@@H](OCc3c(-c5ccccc5OC(F)(F)F)noc3C3CC3)C4)cc2)o[nH]1` [Example 81, 5-(4-((1R,3r,5S)-3-((5-cyclopropyl-3-(2-(trifluoromethoxy)phenyl)isoxazol-4-yl)methoxy)-8-azabicyclo[3.2.1]octan-8-yl)phenyl)isoxazol-3(2H)-one], the EC50 in assay [1] is 175 nM.

For `N#Cc1nn(-c2ccc(N3CCC(OCc4c(-c5c(Cl)cccc5Cl)noc4C4CC4)CC3)nc2)c(=O)[nH]c1=O` [Example 82, 2-(6-(4-((5-cyclopropyl-3-(2,6-dichlorophenyl)isoxazol-4-yl)methoxy)piperidin-1-yl)pyridin-3-yl)-3,5-dioxo-2,3,4,5-tetrahydro-1,2,4-triazine-6-carbonitrile], the EC50 in assay [1] amounted to 1830 nM.

On to `N#Cc1n[nH]c(=O)n(-c2ccc(N3CCC(OCc4c(-c5c(Cl)cccc5Cl)noc4C4CC4)CC3)nc2)c1=O` [Example 83, 4-(6-(4-((5-cyclopropyl-3-(2,6-dichlorophenyl)isoxazol-4-yl)methoxy)piperidin-1-yl)pyridin-3-yl)-3,5-dioxo-2,3,4,5-tetrahydro-1,2,4-triazine-6-carbonitrile], for which the EC50 in assay [1] is 5250 nM.

On to `O=c1cc(-c2ccc(N3CCC(OCc4c(-c5ccccc5OC(F)(F)F)noc4C4CC4)C(F)(F)C3)cc2)o[nH]1` (stereo not drawn) [Example 84, 5-(4-(4-((5-cyclopropyl-3-(2-(trifluoromethoxy)phenyl)isoxazol-4-yl)methoxy)-3,3-difluoropiperidin-1-yl)phenyl)isoxazol-3(2H)-one], for which the EC50 in assay [1] worked out at 1530 nM.

With `N#Cc1nn(-c2ccc(N3CCC(OCc4c(-c5ccccc5OC(F)(F)F)noc4C4CC4)CC3)cc2)c(=O)[nH]c1=O` [Example 85, 2-(4-(4-((5-cyclopropyl-3-(2-(trifluoromethoxy)phenyl)isoxazol-4-yl)methoxy)piperidin-1-yl)phenyl)-3,5-dioxo-2,3,4,5-tetrahydro-1,2,4-triazine-6-carbonitrile], in assay [1], the EC50 amounted to 755 nM.

Regarding `N#Cc1n[nH]c(=O)n(-c2ccc(N3CCC(OCc4c(-c5ccccc5OC(F)(F)F)noc4C4CC4)CC3)cc2)c1=O` [Example 86, 4-(4-(4-((5-cyclopropyl-3-(2-(trifluoromethoxy)phenyl)isoxazol-4-yl)methoxy)piperidin-1-yl)phenyl)-3,5-dioxo-2,3,4,5-tetrahydro-1,2,4-triazine-6-carbonitrile], the EC50 in assay [1] was 22900 nM.

For `O=c1cc(-c2ccc(N3CCC(OCc4c(-c5c(Cl)cccc5Cl)noc4C4CC4)C(F)(F)C3)cc2)o[nH]1` (stereo not drawn) [Example 87, 5-(4-(4-((5-cyclopropyl-3-(2,6-dichlorophenyl)isoxazol-4-yl)methoxy)-3,3-difluoropiperidin-1-yl)phenyl)isoxazol-3(2H)-one], in assay [1], the EC50 amounted to 261 nM.

In the case of `O=c1cnn(-c2ccc(N3[C@@H]4CC[C@H]3C[C@@H](OCc3c(-c5ccccc5OC(F)(F)F)noc3C3CC3)C4)cc2)c(=O)[nH]1` [Example 88, 2-(4-((1R,3r,5S)-3-((5-cyclopropyl-3-(2-(trifluoromethoxy)phenyl)isoxazol-4-yl)methoxy)-8-azabicyclo[3.2.1]octan-8-yl)phenyl)-1,2,4-triazine-3,5(2H,4H)-dione], in assay [1], the EC50 turned out to be 460 nM.

Take `N#Cc1nn(-c2ccc(N3[C@@H]4CC[C@H]3C[C@@H](OCc3c(-c5ccccc5OC(F)(F)F)noc3C3CC3)C4)cc2)c(=O)[nH]c1=O` [Example 89, 2-(4-((1R,3r,5S)-3-((5-cyclopropyl-3-(2-(trifluoromethoxy)phenyl)isoxazol-4-yl)methoxy)-8-azabicyclo[3.2.1]octan-8-yl)phenyl)-3,5-dioxo-2,3,4,5-tetrahydro-1,2,4-triazine-6-carbonitrile]: the EC50 in assay [1] turned out to be 1000 nM.
